One data set has as its system helminths. Particulars: stated as known; cited from earlier work.
Another data set relates to M. sexta. Description: Hemolymph ecdysteroid titers (radioimmunoassay) and weight gain of fourth instar M. sexta fed compound in artificial diet. It counts as in vivo, Manduca sexta. How it is done:
The invention will now be further described by way of exemplification and by reference to the drawings in which; • Figure 1. Both 20-hydroxyecdysone and Example No. 3 induce process elaboration (A) and inhibition of cell proliferation (B) in Kr cells in a dose-dependent manner. Initial cell density was 2 X 10^6 cells/ml; after incubation of 1 ml aliquots of the cells with the compound for 48 hours the cells were triturated gently and the percentage of cells responding (with processes longer than approximately 17 um, see Cherbas et al. 189 Wilhelm Roux's Arch. 1 (1980)) and total cell density was determined by hemocytom- eter counting, relative to ethanol (1 ul)-treated controls. Determinations were in triplicate for each dose. […] Induction of acetylcholinesterase by varying concentrations of 20-hydroxyecdysone and Example No. 3. Kr cells at an initial density of 3 X 10^6 cells/ml (10 ml per sample) were incubated with the agonist for three days. After harvesting, by centrifugation at 3000 X g, the cell pellets were washed with Robb's Drosophila saline (18, 2 X 5 ml) at 4 ° C, then lysed by sonication in 1 ml of phosphate buffer (pH 7.4, I = 0.1 M) containing 0.5 M NaCI, 0.25 M EDTA and 0.5% TRITON? X-100. See Cherbas, 197 Science 275 (1977). Triton is a registered trademark of Rohm and Haas Company for a alkylaryl polyoxyethylene glycol surfactant. After centrifugation at 16,000 X g, the supernatants were assayed for acetylcholinesterase activity by an adaptation of the method of Ellman et al., 7 Biochem. Pharmacol. 88 (1961), by subtracting out any 412 nm absorbance observed in incubations in the presence of 2 X 10-5 eserine sulfate. Thus reaction mixtures contained 50 ul of enzyme extract, 20 ul eserine (blank tubes only) and 1.0 ml of 0.5 mM acetylthiocholine, 0.3 mM dithiobisnitrobenzoic acid in phosphate buffer (pH 7.4, I = 0.1 M). Incubations were at 25 ° C for two hours; reactions in active tubes were terminated by addition of eserine. Absorbance at 412 nm was then measured. Protein concentration in extracts was measured by the Biorad method. […] Scatchard plot of ^3H-ponasterone A binding to Kr cell cytosolic receptor extracts in the presence of differing concentrations of Example No. 3. Cytosolic extract preparation and ecdysteroid receptor assays were essentially as described in Sage, 111 Meth. in Enzymol. 458 (1985). Example No. 3 was added in 1 ul DMSO to 50 ul of radioligand in 10 mM Tris buffer (pH 7.2) and 50 ul of undiluted cytosol extract. After incubation overnight at 0.5 ° C, bound label was separated from free by addition of 300 ul 1% HCI-washed charcoal (Sigma) and 0.1% Dextran T70 (Pharmacia) in Tris buffer, centrifugation (13,000 X g, 3 min, 4 ° C) and liquid scintillation counting of a 300 ul aliquot of the supernatant in 15 ml Hydrofluor (National Diagnostics). Points are means of duplicate determinations. […] Relative ability of 20 hydroxyecdysone and Example No. 3 to displace ^3H-ponasterone A from cytosolic receptor extracts. Conditions were as in Figure 3 except that only 0.5 nM ponasterone A was used. • Points are means of duplicate determinations. For 20-hydroxyecdysone EC50 = 0.1 uM while for Example No. 3 EC50 = 3.0 uM. Control binding = 10 femtomoles ^3H-ponasterone A bound per mg cytosol protein. • Figure 4. […] Ecdysteroid titers were measured by a radioimmunoassay adapted from Warren et al., 40 Experientia 393 (1984) with Protein A-Staph. aureus suspension (Sigma) used as the reagent to separate bound from free ligand. […]

A short description of data set [1]: Hemolymph titers of 14C-Example No. 3 in L5 hornworms after feeding. Type of data set: in vivo, M. sexta.
The subject of data set [2] is ligated M. sexta abdomens (L4D1). As to the kind of experiment: Onset of molting in ligated L4D1 M. sexta abdomens (injection). It counts as in vivo. As to conditions: injected into L4D1 abdomens. How it is done:
L4D1 means fourth instar, first day after molting. L4 animals 36 hours after ecdysis were ligated, decapitated and next day injected with varying doses of compound in 1 - 2 ul DMSO. They were scored as follows: 0 = normal L4 abdomens with no L5 crochets or spiracle apolysis; 1 = exposed dorsal vessel (response to moderate levels of molting hormone in the presence of low JH levels); 2 = L5 crochets formed but no spiracle apolysis; 3 = L5 crochets formed and mild spiracle apolysis; 4 = strong molting response, both L5 crochets and spiracle cuticle synthesized. These methods are an adaptation of the method of J. W. Truman, L. M. Riddiford, L. Safranek, 39 Dev. Biol 247 (1974). Injection and scoring of L5D3 abdomens (weighing 6.5 - 7.5 g) are also adaptations of previous methods in H. F. Nijhout, 22 J. Insect Physiol. 453 (1976). […] Animals were held over moistened filter paper at 25 ° C and were scored after three days. […] For both L4 and L5 abdomens, 50% effective doses were determined by plotting the mean score for all individuals vs. dose, then determining the dose which gives a score of 2.0 and 1.5 respectively. Intact L5D0 hornworms were either allowed to feed on treated commercial black cutworm diet or injected into a proleg and scored after 48 hours. The 50% effective dose was calculated by plotting percentage of the population bearing a prematurely apolysed head capsule vs. dose. […]

The test system of data set [3] is dipteran larvae (both houseflies and mosquitoes) and certain coleopteran larvae. Description: Control of larvae and ovariole development in other insect orders. Type of data set: in vivo. The source says:
We have observed the induction of premature head capsule apolysis by Example No. 3 in all larval stages of M. sexta. This phenomenon has also been observed in larval Lepidoptera of the families Noctuidae, Pyralidae and Pieridae. […] This latter activity is consistent with its putative ecdysonergic mechanism of action.

Where [4] appears, read: L4 M. sexta, 10 ppm in artificial diet.

For the molecule `CC(C)(O)CC[C@@H](O)[C@](C)(O)[C@H]1CC[C@@]2(O)C3=CC(=O)[C@@H]4C[C@@H](O)[C@@H](O)C[C@]4(C)[C@H]3CC[C@]12C` [20-hydroxyecdysone, reference compound], in the data set with helminths, the control of helminths entry is reported as “controls helminths”.

Consider `CC(C)(C)N(NC(=O)c1ccccc1)C(=O)c1ccccc1` [Example No. 3, N'-t-butyl-N,N'-dibenzoylhydrazine], for which, in the data set with M. sexta (L4D0 animals, within four hours after the initiation of feeding), the “ecdysone titers relative to control levels” value is “significantly depressed”. Also, the “outcome of the molt” value in the data set on M. sexta (L4 M. sexta treated larvae) is “eventually died without completing the molt”. Also, in the data set with M. sexta (setting [4]), the “feeding and weight gain” value is “further feeding and weight gain ceases”; the immunoreactive ecdysone titers result is “without any elevation of ecdysone titers”; the “time to head capsule slippage” value turned out to be 24 h. Moreover, the “peak hemolymph concentration relative to concentrations required for a 50% response in Kr cell process elaboration and ^3H-ponasterone A displacement” value in data set [1] (10 ug/g oral dose) fell in the range of 3 to 5 fold. Further, the concentration at 36 h in data set [1] (tobacco hornworm, hemolymph, po, 10 ug/g in diet, for at least 36 hours thereafter, read-out: residual hemolymph level) is about 3 µM. Also, the Cmax at 6 h in data set [1] (tobacco hornworm, hemolymph, po, L5D0 larvae, 10 ug/g in diet, at six hours after the initiation of feeding, read-out: peak hemolymph concentration) came to 16 µM. Further, the “fold more potent than 20-hydroxyecdysone” value in data set [2] amounted to 30 fold. Besides, the control of larvae result in data set [3] (houseflies, mosquitoes, certain coleopteran larvae) is given as “controls”. In addition, the ovariole development result in data set [3] (in all three orders) was “inhibit ovariole development”.
